Tests used:
[1] = test system: poly(ADP-ribose) in PC-12 cells; assay: Intracellular PAR staining in H2O2-treated PC-12 cells (flow cytometry); type: cell-based; settings: PC-12 cells pre-treated with PIP-1, then H2O2
Method: Screening of the 22,000 compounds in this manner produced 38 primary hits (FIG. 15A—“initial hits”). These 38 compounds are assessed for their ability to inhibit PARP-1 and PARG using standard in vitro assays. (12, 29) 20 compounds are PARP-1 inhibitors, and 3 are PARG inhibitors (FIG. 15A). Compounds 1 and 2 inhibit PARG quite well, with IC50 values of ˜0.4-0.5 μM (FIG. 15C). […] Subsequent efforts therefore focused on compound 1, which is named PIP-1 (pyridazinone inhibitor of PARG), and derivatives thereof. […] To determine if PIP-1 could induce the build-up of PAR in cell culture, PC-12 cells were treated with a range of PIP-1 concentrations; H2O2 was then added to induce PARP-1 activity and the cellular PAR levels were quantitated with an anti-PAR antibody and flow cytometry.
Intracellular PAR staining: 1 mL of 10^6 cells/mL PC-12 cells is added to the wells of a 24-well plate. Varying concentrations of PIP-1 or DMSO as a control are added to the cells and incubated for 2 h at 37° C. H2O2 is added to the cells to approximately […]. After a 2 h incubation at 37° C., the cells are thoroughly washed in PBS and fixed overnight in 4° C. ethanol. The cells are again washed in PBS and stained with a 1:50 dilution of anti-poly(ADP-ribose) antibody for 4 h at 4° C. […] After washing with PBS, the fluorescent intensity of each cell is determined by flow cytometry.

[2] = Assessment of PIP-1 levels in the brain (blood-brain-barrier penetrance); type: in vivo, mice; settings: 50 mg/kg i.p.
Method: As a prelude to assessment of PIP-1 in a mouse model of PD, the ability of PIP-1 to penetrate the blood-brain-barrier is first assessed. PIP-1 is injected i.p. at a dose of 50 mg/kg, and mice are sacrificed at 1 and 2 h post injection. After sacrifice, to establish the presence of PIP-1 in the brain the striatum was dissected, sonicated in perchloric acid, and centrifuged. The clarified supernatant is analyzed by HPLC. No endogenous compounds interfere with this assay for PIP-1 as no signal is detected in dissected striata from non-treated mice. As shown by FIG. 21A, the striatal penetrance of PIP-1 is at the level of 70 ng/mg of protein. […] Given this blood-brain-barrier penetrance by PIP-1, the compound is assessed in the MPTP mouse model of PD. […] PIP-1 is assessed at concentrations of 0 mg/kg, 1 mg/kg, 5 mg/kg, 10 mg/kg, and 50 mg/kg, and five mice are used in each group. After 30 days, the mice are sacrificed and the striatum dissected and analyzed by HPLC to determine the levels of dopamine and various dopamine metabolites.
Assessment of PIP-1 levels in the brain: PIP-1 was injected into mice i.p. at 50 mg/kg and were sacrificed at 1 and 2 h post injection. […] The clarified supernatant was then injected into an HPLC and the concentration of PIP-1 was determined by comparison to a standard curve. […]

[3] = test system: MPTP-treated C57 Black mice; assay: MPTP mouse model of PD, striatal monoamine levels; type: in vivo
Method: As a prelude to assessment of PIP-1 in a mouse model of PD, the ability of PIP-1 to penetrate the blood-brain-barrier is first assessed. PIP-1 is injected i.p. at a dose of 50 mg/kg, and mice are sacrificed at 1 and 2 h post injection. After sacrifice, to establish the presence of PIP-1 in the brain the striatum was dissected, sonicated in perchloric acid, and centrifuged. The clarified supernatant is analyzed by HPLC. No endogenous compounds interfere with this assay for PIP-1 as no signal is detected in dissected striata from non-treated mice. As shown by FIG. 21A, the striatal penetrance of PIP-1 is at the level of 70 ng/mg of protein. […] Given this blood-brain-barrier penetrance by PIP-1, the compound is assessed in the MPTP mouse model of PD. Mice are given a one-time i.p. injection of PIP-1 followed 30 minutes later by an injection of MPTP (30 mg/kg). PIP-1 is assessed at concentrations of 0 mg/kg, 1 mg/kg, 5 mg/kg, 10 mg/kg, and 50 mg/kg, and five mice are used in each group. After 30 days, the mice are sacrificed and the striatum dissected and analyzed by HPLC to determine the levels of dopamine and various dopamine metabolites. […]

CN(C)c1cnn(-c2ccccc2)c(=O)c1N [PIP-1, 4-Amino-5-dimethylamino-2-phenyl-2H-pyridazin-3-one]
Accumulation of intracellular PAR [1]: dose-dependent accumulation of intracellular PAR | Striatal penetrance of PIP-1 ([2]; mice, 1 and 2 h post injection, striatum): 70 ng/mg of protein | PIP-1 in peripheral blood ([2]; same time points): no detectable PIP-1 | Striatal levels of dopamine and dopamine metabolites (DOPAC, HVA) in MPTP-treated mice ([3]; 50 mg/kg PIP-1 i.p. 30 min before MPTP 30 mg/kg, after 30 days): very similar to the control mice | Effect of PIP-1 by itself on levels of dopamine or dopamine metabolites ([3]; mice, without MPTP): does not appear to have any adverse effects
